Experimental data as given in ChEMBL document CHEMBL4715821, “Discovery of 4-ethoxy-7H-pyrrolo[2,3-d]pyrimidin-2-amines as potent, selective and orally bioavailable LRRK2 inhibitors” (Bioorg Med Chem Lett, 2018).

Experiments:
[1] = biological target: Serine/threonine-protein kinase Nek11 (Homo sapiens) (UniProt Q8NG66); experiment: Inhibition of wild-type human partial length NEK11 (M1 to E313 residues) expressed in mammalian expression system assessed as residual activity at 1 uM by Kinomescan method relative to control
[2] = biological target: Serine/threonine-protein kinase MRCK alpha (Homo sapiens) (UniProt Q5VT25); experiment: Inhibition of wild-type human partial length MRCKA (L57 to V418 residues) expressed in bacterial expression system assessed as residual activity at 1 uM by Kinomescan method relative to control
Homo sapiens = species: Homo sapiens; experiment: Inhibition of wild-type human full length CDK9 (M1 to F372 residues)/cyclin T1 expressed in bacterial expression system assessed as residual activity at 1 uM by Kinomescan method relative to control
[3] = biological target: Serine/threonine-protein kinase TAO2 (Homo sapiens) (UniProt Q9UL54); experiment: Inhibition of wild-type human partial length TAOK2 (M1 to A320 residues) expressed in mammalian expression system assessed as residual activity at 1 uM by Kinomescan method relative to control
[4] = biological target: Ribosomal protein S6 kinase alpha-4 (Homo sapiens) (UniProt O75676); experiment: Inhibition of wild-type human partial length N-terminal RPS6KA4 kinase domain 1 expressed in bacterial expression system assessed as residual activity at 1 uM by Kinomescan method relative to control
[5] = biological target: Protein kinase C beta type (Homo sapiens) (UniProt P05771); experiment: Inhibition of PKCbeta1 (unknown origin) assessed as residual activity at 1 uM by Kinomescan method relative to control
[6] = biological target: Serine/threonine-protein kinase TAO1 (Homo sapiens) (UniProt Q7L7X3); experiment: Inhibition of wild-type human partial length TAOK1 (M1 to A320 residues) expressed in mammalian expression system assessed as residual activity at 1 uM by Kinomescan method relative to control
[7] = biological target: Calcium/calmodulin-dependent protein kinase type 1 (Homo sapiens) (UniProt Q14012); experiment: Inhibition of wild-type human full length CAMK1A (M1 to L370 residues) expressed in bacterial expression system assessed as residual activity at 1 uM by Kinomescan method relative to control
[8] = biological target: Dual specificity mitogen-activated protein kinase kinase 4 (Homo sapiens) (UniProt P45985); experiment: Inhibition of MKK4 (unknown origin) assessed as residual activity at 1 uM by Kinomescan method relative to control
[9] = biological target: Death-associated protein kinase 3 (Homo sapiens) (UniProt O43293); experiment: Inhibition of wild-type human partial length DAPK3 (M1 to A277 residues) expressed in bacterial expression system assessed as residual activity at 1 uM by Kinomescan method relative to control
[10] = biological target: Ephrin type-B receptor 1 (Homo sapiens) (UniProt P54762); experiment: Inhibition of wild-type human partial length EPHB1 (P589 to T911 residues) expressed in bacterial expression system assessed as residual activity at 1 uM by Kinomescan method relative to control
[11] = biological target: Mitogen-activated protein kinase 1 (Homo sapiens) (UniProt P28482); experiment: Inhibition of wild-type human full length ERK2 (M1 to S360 residues) expressed in bacterial expression system assessed as residual activity at 1 uM by Kinomescan method relative to control
[12] = biological target: Proto-oncogene tyrosine-protein kinase Src (Homo sapiens) (UniProt P12931); experiment: Inhibition of wild-type human partial length c-Src (M1 to L450 residues) expressed in bacterial expression system assessed as residual activity at 1 uM by Kinomescan method relative to control
[13] = biological target: Protein kinase C delta type (Homo sapiens) (UniProt Q05655); experiment: Inhibition of PKCdelta (unknown origin) assessed as residual activity at 1 uM by Kinomescan method relative to control
[14] = biological target: Tyrosine-protein kinase TXK (Homo sapiens) (UniProt P42681); experiment: Inhibition of wild-type human partial length TXK (L238 to W527 residues) expressed in bacterial expression system assessed as residual activity at 1 uM by Kinomescan method relative to control
[15] = biological target: Mitogen-activated protein kinase 14 (Homo sapiens) (UniProt Q16539); experiment: Inhibition of wild-type human full length p38-alpha (M1 to S360 residues) expressed in bacterial expression system assessed as residual activity at 1 uM by Kinomescan method relative to control
[16] = biological target: MAP kinase-activated protein kinase 3 (Homo sapiens) (UniProt Q16644); experiment: Inhibition of human MAPKAPK3 assessed as residual activity at 1 uM by Kinomescan method relative to control
[17] = biological target: Tyrosine-protein kinase BTK (Homo sapiens) (UniProt Q06187); experiment: Inhibition of wild-type human full length BTK (M1 to S659 residues) expressed in mammalian expression system assessed as residual activity at 1 uM by Kinomescan method relative to control
[18] = biological target: Receptor tyrosine-protein kinase erbB-2 (Homo sapiens) (UniProt P04626); experiment: Inhibition of wild-type human partial length ERBB2 (K646 to V1225 residues) expressed in mammalian expression system assessed as residual activity at 1 uM by Kinomescan method relative to control
[19] = biological target: Serine/threonine-protein kinase Sgk2 (Homo sapiens) (UniProt Q9HBY8); experiment: Inhibition of wild-type human partial length SGK2 (L54 to C427 residues) expressed in mammalian expression system assessed as residual activity at 1 uM by Kinomescan method relative to control
[20] = biological target: Calcium/calmodulin-dependent protein kinase type 1G (Homo sapiens) (UniProt Q96NX5); experiment: Inhibition of wild-type human partial length CAMK1G (M1 to A342 residues) expressed in bacterial expression system assessed as residual activity at 1 uM by Kinomescan method relative to control
[21] = biological target: Tyrosine-protein kinase Srms (Homo sapiens) (UniProt Q9H3Y6); experiment: Inhibition of wild-type human partial length SRMS (L208 to P488 residues) expressed in mammalian expression system assessed as residual activity at 1 uM by Kinomescan method relative to control
[22] = biological target: Ribosomal protein S6 kinase alpha-2 (Homo sapiens) (UniProt Q15349); experiment: Inhibition of human RSK3 expressed in bacterial expression system assessed as residual activity at 1 uM by Kinomescan method relative to control
[23] = biological target: Activin receptor type-1B (Homo sapiens) (UniProt P36896); experiment: Inhibition of wild-type human ACVR1B (S187 to I505 residues) expressed in bacterial expression system assessed as residual activity at 1 uM by Kinomescan method relative to control
[24] = Unbound fraction in human serum; assay type: ADME, cell-free
[25] = biological target: Calcium/calmodulin-dependent protein kinase type II subunit delta (Homo sapiens) (UniProt Q13557); experiment: Inhibition of wild-type human partial length CAMK2D (M1 to E329 residues) expressed in bacterial expression system assessed as residual activity at 1 uM by Kinomescan method relative to control
[26] = biological target: Protein-tyrosine kinase 6 (Homo sapiens) (UniProt Q13882); experiment: Inhibition of wild-type human partial length BRK (L166 to T451 residues) expressed in bacterial expression system assessed as residual activity at 1 uM by Kinomescan method relative to control
[27] = biological target: Protein kinase C beta type (Homo sapiens) (UniProt P05771); experiment: Inhibition of PKCbeta2 (unknown origin) assessed as residual activity at 1 uM by Kinomescan method relative to control

Protein kinase C beta type (Homo sapiens), sequence (P05771 2-671 limits assumed): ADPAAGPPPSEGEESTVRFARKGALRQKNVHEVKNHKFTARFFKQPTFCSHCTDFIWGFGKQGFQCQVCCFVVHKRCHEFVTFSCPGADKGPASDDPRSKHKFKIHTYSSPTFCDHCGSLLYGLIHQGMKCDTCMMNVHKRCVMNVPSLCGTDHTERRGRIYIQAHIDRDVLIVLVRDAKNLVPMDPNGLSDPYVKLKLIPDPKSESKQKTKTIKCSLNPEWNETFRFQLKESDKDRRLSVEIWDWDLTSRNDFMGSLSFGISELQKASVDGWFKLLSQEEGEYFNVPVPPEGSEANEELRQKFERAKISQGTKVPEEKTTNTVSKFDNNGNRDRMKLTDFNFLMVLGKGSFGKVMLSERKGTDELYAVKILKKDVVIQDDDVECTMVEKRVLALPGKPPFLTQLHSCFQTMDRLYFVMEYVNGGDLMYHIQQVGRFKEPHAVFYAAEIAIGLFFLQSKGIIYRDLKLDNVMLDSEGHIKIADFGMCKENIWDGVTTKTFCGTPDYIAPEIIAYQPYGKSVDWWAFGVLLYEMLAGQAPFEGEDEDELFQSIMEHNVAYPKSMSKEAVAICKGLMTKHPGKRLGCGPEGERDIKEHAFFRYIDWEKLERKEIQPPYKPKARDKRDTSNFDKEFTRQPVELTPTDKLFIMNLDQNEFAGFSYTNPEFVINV
Calcium/calmodulin-dependent protein kinase type 1G (Homo sapiens), sequence (Q96NX5 whole entry, the tested form may be a part): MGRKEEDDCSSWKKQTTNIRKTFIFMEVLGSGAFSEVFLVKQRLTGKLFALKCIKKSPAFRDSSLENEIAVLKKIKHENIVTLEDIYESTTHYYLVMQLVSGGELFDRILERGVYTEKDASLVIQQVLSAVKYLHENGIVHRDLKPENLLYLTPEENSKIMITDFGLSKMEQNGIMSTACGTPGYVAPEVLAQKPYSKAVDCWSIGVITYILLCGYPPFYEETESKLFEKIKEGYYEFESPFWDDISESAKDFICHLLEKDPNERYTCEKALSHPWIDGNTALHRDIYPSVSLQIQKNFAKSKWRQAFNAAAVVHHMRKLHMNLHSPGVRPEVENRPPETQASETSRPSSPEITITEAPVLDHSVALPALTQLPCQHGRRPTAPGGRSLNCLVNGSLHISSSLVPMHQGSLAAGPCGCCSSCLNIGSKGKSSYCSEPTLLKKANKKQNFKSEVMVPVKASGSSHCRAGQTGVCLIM
Protein-tyrosine kinase 6 (Homo sapiens), sequence (Q13882 whole entry, looked up, the tested form may be a part): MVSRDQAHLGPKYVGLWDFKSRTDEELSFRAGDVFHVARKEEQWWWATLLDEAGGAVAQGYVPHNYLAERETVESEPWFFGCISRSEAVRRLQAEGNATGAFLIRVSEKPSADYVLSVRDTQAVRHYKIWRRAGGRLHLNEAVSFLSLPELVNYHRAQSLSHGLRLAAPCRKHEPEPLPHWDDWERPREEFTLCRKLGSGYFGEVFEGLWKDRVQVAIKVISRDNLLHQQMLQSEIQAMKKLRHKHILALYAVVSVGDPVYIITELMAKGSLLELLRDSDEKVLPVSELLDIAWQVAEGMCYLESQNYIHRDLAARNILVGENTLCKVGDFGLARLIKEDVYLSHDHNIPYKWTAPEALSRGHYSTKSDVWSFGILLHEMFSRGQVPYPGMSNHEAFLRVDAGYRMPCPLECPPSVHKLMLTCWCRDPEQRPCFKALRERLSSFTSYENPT
MAP kinase-activated protein kinase 3 (Homo sapiens), sequence (Q16644 whole entry, looked up, the tested form may be a part): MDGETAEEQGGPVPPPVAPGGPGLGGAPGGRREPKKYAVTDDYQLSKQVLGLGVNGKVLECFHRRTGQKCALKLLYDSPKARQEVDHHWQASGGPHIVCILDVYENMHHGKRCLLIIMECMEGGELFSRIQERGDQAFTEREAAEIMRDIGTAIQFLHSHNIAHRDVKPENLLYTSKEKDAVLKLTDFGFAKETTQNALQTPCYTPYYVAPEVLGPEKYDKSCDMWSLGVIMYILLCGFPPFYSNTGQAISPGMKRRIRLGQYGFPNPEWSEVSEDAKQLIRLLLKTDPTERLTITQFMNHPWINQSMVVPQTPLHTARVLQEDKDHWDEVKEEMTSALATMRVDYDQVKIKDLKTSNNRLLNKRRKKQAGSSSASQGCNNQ
Protein kinase C delta type (Homo sapiens), sequence (Q05655 whole entry, looked up, the tested form may be a part): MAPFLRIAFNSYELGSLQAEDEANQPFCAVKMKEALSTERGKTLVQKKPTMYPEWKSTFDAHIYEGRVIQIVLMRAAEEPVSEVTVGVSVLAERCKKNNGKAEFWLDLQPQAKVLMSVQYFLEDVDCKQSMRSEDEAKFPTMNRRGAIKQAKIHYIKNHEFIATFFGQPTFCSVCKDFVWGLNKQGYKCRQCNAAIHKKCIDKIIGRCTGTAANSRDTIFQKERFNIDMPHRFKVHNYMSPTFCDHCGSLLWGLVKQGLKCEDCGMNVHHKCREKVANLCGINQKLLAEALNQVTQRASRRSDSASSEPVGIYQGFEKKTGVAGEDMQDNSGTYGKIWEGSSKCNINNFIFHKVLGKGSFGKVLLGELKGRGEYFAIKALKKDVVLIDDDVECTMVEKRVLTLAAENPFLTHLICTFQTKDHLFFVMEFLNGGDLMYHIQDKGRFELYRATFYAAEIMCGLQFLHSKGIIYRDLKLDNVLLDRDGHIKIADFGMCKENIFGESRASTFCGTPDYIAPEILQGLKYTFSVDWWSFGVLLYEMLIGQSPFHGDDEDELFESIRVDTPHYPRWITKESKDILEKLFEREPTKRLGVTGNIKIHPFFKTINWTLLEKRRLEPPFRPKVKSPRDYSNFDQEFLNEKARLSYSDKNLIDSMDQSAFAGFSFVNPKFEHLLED
Receptor tyrosine-protein kinase erbB-2 (Homo sapiens), sequence (P04626 whole entry, the tested form may be a part): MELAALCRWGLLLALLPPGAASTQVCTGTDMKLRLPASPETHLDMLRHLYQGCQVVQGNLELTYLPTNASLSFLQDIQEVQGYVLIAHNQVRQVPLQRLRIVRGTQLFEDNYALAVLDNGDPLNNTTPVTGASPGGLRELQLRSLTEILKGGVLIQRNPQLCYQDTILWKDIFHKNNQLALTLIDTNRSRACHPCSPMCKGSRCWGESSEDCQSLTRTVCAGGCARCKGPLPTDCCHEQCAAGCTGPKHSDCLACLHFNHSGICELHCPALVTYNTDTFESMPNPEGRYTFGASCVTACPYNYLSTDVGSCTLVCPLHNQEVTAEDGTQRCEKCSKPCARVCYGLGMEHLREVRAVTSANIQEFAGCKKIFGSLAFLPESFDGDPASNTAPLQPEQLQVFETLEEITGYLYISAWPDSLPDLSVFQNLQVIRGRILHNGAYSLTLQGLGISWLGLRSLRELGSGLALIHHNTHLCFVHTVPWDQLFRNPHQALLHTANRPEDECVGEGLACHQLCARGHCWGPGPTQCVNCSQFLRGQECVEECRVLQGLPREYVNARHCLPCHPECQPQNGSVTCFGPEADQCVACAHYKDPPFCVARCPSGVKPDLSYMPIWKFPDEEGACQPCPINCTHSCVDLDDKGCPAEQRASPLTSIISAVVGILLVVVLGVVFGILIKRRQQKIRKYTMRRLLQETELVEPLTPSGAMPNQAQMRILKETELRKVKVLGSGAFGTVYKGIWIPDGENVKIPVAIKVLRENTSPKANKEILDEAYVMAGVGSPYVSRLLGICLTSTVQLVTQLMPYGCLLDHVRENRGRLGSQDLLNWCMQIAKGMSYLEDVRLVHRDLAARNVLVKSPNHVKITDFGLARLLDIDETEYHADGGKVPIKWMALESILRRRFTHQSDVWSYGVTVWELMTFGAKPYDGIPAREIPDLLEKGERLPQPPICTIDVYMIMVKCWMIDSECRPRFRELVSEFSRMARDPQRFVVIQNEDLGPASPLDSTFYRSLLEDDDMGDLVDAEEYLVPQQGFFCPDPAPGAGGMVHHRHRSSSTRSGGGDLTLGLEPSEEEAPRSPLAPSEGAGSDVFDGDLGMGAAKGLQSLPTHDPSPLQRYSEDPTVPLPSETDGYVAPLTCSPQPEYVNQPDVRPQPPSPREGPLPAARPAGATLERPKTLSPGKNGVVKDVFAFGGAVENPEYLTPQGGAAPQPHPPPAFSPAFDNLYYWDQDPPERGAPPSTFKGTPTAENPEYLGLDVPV
Serine/threonine-protein kinase Sgk2 (Homo sapiens), sequence (Q9HBY8 whole entry, the tested form may be a part): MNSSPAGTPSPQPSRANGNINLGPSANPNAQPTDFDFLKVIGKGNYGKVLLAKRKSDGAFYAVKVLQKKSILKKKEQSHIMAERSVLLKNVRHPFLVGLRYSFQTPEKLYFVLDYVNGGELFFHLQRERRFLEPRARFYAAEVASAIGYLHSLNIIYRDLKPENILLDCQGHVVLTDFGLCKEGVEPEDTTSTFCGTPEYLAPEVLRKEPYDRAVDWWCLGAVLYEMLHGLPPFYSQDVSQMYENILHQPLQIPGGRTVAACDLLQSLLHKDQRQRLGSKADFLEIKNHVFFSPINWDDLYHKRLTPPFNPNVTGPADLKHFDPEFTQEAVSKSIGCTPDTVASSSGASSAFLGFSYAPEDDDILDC
Ribosomal protein S6 kinase alpha-2 (Homo sapiens), sequence (Q15349 whole entry, the tested form may be a part): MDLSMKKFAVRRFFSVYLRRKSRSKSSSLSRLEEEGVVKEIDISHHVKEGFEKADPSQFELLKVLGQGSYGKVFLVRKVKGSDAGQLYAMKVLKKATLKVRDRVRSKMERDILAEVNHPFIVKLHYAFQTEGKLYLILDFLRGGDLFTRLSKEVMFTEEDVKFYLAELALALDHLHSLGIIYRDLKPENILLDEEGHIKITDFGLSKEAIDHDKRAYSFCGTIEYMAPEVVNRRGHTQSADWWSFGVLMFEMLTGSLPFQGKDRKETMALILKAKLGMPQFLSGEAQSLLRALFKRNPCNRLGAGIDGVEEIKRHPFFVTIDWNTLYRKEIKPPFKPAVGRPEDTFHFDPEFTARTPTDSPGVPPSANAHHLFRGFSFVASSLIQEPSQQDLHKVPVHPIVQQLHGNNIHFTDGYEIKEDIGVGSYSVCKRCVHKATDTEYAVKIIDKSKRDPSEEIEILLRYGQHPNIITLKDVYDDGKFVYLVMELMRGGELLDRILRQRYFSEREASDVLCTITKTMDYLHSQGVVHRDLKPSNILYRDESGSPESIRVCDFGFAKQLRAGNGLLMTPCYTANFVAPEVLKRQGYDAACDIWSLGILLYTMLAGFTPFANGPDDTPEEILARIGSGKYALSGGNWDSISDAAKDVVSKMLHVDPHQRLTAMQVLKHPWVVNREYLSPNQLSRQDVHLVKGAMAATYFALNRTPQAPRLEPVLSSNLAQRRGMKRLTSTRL

## CCOc1nc(Nc2ccc(C(=O)N3CCOCC3)cc2OC)nc2[nH]ccc12
[1]
  Activity: 86.5%
[2]
  Activity: 99.4%
Homo sapiens
  Activity: 91.6%
[3]
  Activity: 103%
[4]
  Activity: 109%
[5]
  Activity: 100%
[6]
  Activity: 89.9%
[7]
  Activity: 85.9%
[8]
  Activity: 107%
[9]
  Activity: 66.9%
[10]
  Activity: 100%
[11]
  Activity: 93.5%
[12]
  Activity: 99%
[13]
  Activity: 99.8%
[14]
  Activity: 88%
[15]
  Activity: 99.9%
[16]
  Activity: 101%
[17]
  Activity: 101%
[18]
  Activity: 110%
[19]
  Activity: 88.7%
[20]
  Activity: 106%
[21]
  Activity: 108%
[22]
  Activity: 80.3%
[23]
  Activity: 84.5%
[24]
  fraction unbound: 0.059
[25]
  Activity: 86.3%
[26]
  Activity: 45.6%
[27]
  Activity: 89.1%
